The source of these data is PMC5218480 (PLoS ONE, 2017).

The assay deals with MV-4-11 cells. Description: Gene expression microarray analysis (Affymetrix PrimeView) and GSEA. The assay is classed as cell-based, human. More on the design: RFU PODN (11730768_x_at) / Fold change /veh PODN (11730768_x_at) / RFU LINC00158 (11744669_a_at) / Fold change /veh LINC00158 (11744669_a_at) / RFU DUSP10 (11751237_a_at) / Fold change /veh DUSP10 (11751237_a_at) / RFU ID3 (11757404_x_at) / Fold change /veh ID3 (11757404_x_at) / RFU PLEKHG5 (11737974_s_at) / Fold change /veh PLEKHG5 (11737974_s_at) / RFU LRRC4B (11730491_at) / Fold change /veh LRRC4B (11730491_at) / RFU GIMAP4 (11747438_a_at) / Fold change /veh GIMAP4 (11747438_a_at) / RFU KRT8 (11758183_x_at) / Fold change /veh KRT8 (11758183_x_at) / RFU CNN1 (11734310_a_at) / Fold change /veh CNN1 (11734310_a_at) / RFU VPS37D (11726825_at) / Fold change /veh VPS37D (11726825_at) / RFU C10orf10 (11716522_x_at) / Fold change /veh C10orf10 (11716522_x_at) / RFU KIR2DL2 /// KIR2DL4 /// KIR2DL5A /// KIR2DL5B /// KIR2DS1 /// KIR2DS2 /// KIR2DS3 /// KIR2DS4 /// KIR3DL3 /// KIR3DL3 /// KIR3DS1 (11738374_at) / Fold change /veh KIR2DL2 /// KIR2DL4 /// KIR2DL5A /// KIR2DL5B /// KIR2DS1 /// KIR2DS2 /// KIR2DS3 /// KIR2DS4 /// KIR3DL3 /// KIR3DL3 /// KIR3DS1 (11738374_at) / RFU C1QL1 (11718748_at) / Fold change /veh C1QL1 (11718748_at) / RFU TMPRSS4 (11747572_a_at) / Fold change /veh TMPRSS4 (11747572_a_at) / RFU HAMP (11756126_x_at) / Fold change /veh HAMP (11756126_x_at) / RFU RNFT2 (11725882_a_at) / Fold change /veh RNFT2 (11725882_a_at) / RFU NR4A2 (11747474_a_at) / Fold change /veh NR4A2 (11747474_a_at) / RFU ABCC12 (11746883_a_at) / Fold change /veh ABCC12 (11746883_a_at) / RFU TMEM136 (11760407_x_at) / Fold change /veh TMEM136 (11760407_x_at) / RFU CLDN22 /// WWC2 (11732394_at) / Fold change /veh CLDN22 /// WWC2 (11732394_at) / RFU HLA-DPB1 (11760878_x_at) / Fold change /veh HLA-DPB1 (11760878_x_at) / RFU SPINT1 (11716480_a_at) / Fold change /veh SPINT1 (11716480_a_at) / RFU GAP43 (11754022_s_at) / Fold change /veh GAP43 (11754022_s_at) / RFU A4GNT (11735810_at) / Fold change /veh A4GNT (11735810_at) / RFU PRB3 (11715151_x_at) / Fold change /veh PRB3 (11715151_x_at) / RFU TUBB4B (11761932_at) / Fold change /veh TUBB4B (11761932_at) / RFU CAPN14 (11732068_a_at) / Fold change /veh CAPN14 (11732068_a_at) / RFU TMCC2 (11721928_a_at) / Fold change /veh TMCC2 (11721928_a_at) / RFU IRGQ (11745062_a_at) / Fold change /veh IRGQ (11745062_a_at) / RFU FAM174B (11720279_a_at) / Fold change /veh FAM174B (11720279_a_at) / RFU TMPRSS4 (11748680_a_at) / Fold change /veh TMPRSS4 (11748680_a_at) / RFU FAM212B (11763350_a_at) / Fold change /veh FAM212B (11763350_a_at) / RFU PLEKHG5 (11743358_a_at) / Fold change /veh PLEKHG5 (11743358_a_at) / RFU ZSCAN30 (11745921_a_at) / Fold change /veh ZSCAN30 (11745921_a_at) / RFU CMKLR1 (11741424_a_at) / Fold change /veh CMKLR1 (11741424_a_at) / RFU LOC101060620 /// MAPK8IP1 (11723275_at) / Fold change /veh LOC101060620 /// MAPK8IP1 (11723275_at) / RFU SPTSSB (11747773_x_at) / Fold change /veh SPTSSB (11747773_x_at) / RFU PRSS12 (11739890_at) / Fold change /veh PRSS12 (11739890_at) / RFU BIN1 (11741810_x_at) / Fold change /veh BIN1 (11741810_x_at) / RFU WNT11 (11732464_a_at) / Fold change /veh WNT11 (11732464_a_at) / RFU C10orf10 (11716521_a_at) / Fold change /veh C10orf10 (11716521_a_at) / RFU C5orf56 (11738089_at) / Fold change /veh C5orf56 (11738089_at) / RFU CYB561 (11721691_x_at) / Fold change /veh CYB561 (11721691_x_at) / RFU ANKRD19P (11752326_a_at) / Fold change /veh ANKRD19P (11752326_a_at) / RFU OR2T12 /// OR2T33 /// OR2T8 (11738714_s_at) / Fold change /veh OR2T12 /// OR2T33 /// OR2T8 (11738714_s_at) / RFU VCAN (11748164_a_at) / Fold change /veh VCAN (11748164_a_at) / RFU JSRP1 (11732532_at) / Fold change /veh JSRP1 (11732532_at) / RFU KRTAP10-11 (11738290_x_at) / Fold change /veh KRTAP10-11 (11738290_x_at) / RFU MYO3A (11730013_a_at) / Fold change /veh MYO3A (11730013_a_at) / RFU EBF3 (11725865_a_at) / Fold change /veh EBF3 (11725865_a_at) / RFU CAMK2N1 (11719241_x_at) / Fold change /veh CAMK2N1 (11719241_x_at) / RFU C5orf56 (11738088_a_at) / Fold change /veh C5orf56 (11738088_a_at) / RFU OLFML3 (11715873_a_at) / Fold change /veh OLFML3 (11715873_a_at) / RFU LOC100653217 /// NTM (11731650_a_at) / Fold change /veh LOC100653217 /// NTM (11731650_a_at) / RFU MAPK11 (11762145_a_at) / Fold change /veh MAPK11 (11762145_a_at) / RFU FIZ1 (11724087_x_at) / Fold change /veh FIZ1 (11724087_x_at) / RFU OASL (11726364_x_at) / Fold change /veh OASL (11726364_x_at) / RFU SOX15 (11748057_x_at) / Fold change /veh SOX15 (11748057_x_at) / RFU CD79A (11719716_a_at) / Fold change /veh CD79A (11719716_a_at) / RFU HIST1H1D (11736915_at) / Fold change /veh HIST1H1D (11736915_at) / RFU CASKIN2 (11723855_a_at) / Fold change /veh CASKIN2 (11723855_a_at) / RFU LOC730098 (11760151_x_at) / Fold change /veh LOC730098 (11760151_x_at) / RFU OR4N2 (11742367_at) / Fold change /veh OR4N2 (11742367_at) / RFU PRRT2 (11749266_a_at) / Fold change /veh PRRT2 (11749266_a_at) / RFU SNX32 (11753110_a_at) / Fold change /veh SNX32 (11753110_a_at) / RFU CDHR5 (11726645_a_at) / Fold change /veh CDHR5 (11726645_a_at) / RFU RCAN1 (11760418_a_at) / Fold change /veh RCAN1 (11760418_a_at) / RFU FAM167A (11723789_a_at) / Fold change /veh FAM167A (11723789_a_at) / RFU FAM26E (11764081_at) / Fold change /veh FAM26E (11764081_at) / RFU ISYNA1 (11749810_s_at) / Fold change /veh ISYNA1 (11749810_s_at) / RFU ACY1 (11761880_at) / Fold change /veh ACY1 (11761880_at) / RFU 11764098_at / Fold change /veh 11764098_at / RFU SAMD14 (11745864_x_at) / Fold change /veh SAMD14 (11745864_x_at) / RFU NPB (11741838_a_at) / Fold change /veh NPB (11741838_a_at) / RFU TMPRSS6 (11731388_a_at) / Fold change /veh TMPRSS6 (11731388_a_at) / RFU KRTAP10-2 (11738614_at) / Fold change /veh KRTAP10-2 (11738614_at) / RFU ARHGAP8 /// PRR5-ARHGAP8 (11727945_x_at) / Fold change /veh ARHGAP8 /// PRR5-ARHGAP8 (11727945_x_at) / RFU KRTAP5-7 /// NADSYN1 (11734609_at) / Fold change /veh KRTAP5-7 /// NADSYN1 (11734609_at) / RFU RASL12 (11751679_a_at) / Fold change /veh RASL12 (11751679_a_at) / RFU CDKN2B (11736163_a_at) / Fold change /veh CDKN2B (11736163_a_at) / RFU PRF1 (11729649_at) / Fold change /veh PRF1 (11729649_at) / RFU, ZNF638 /// ZNF638-IT1 / Fold change vs veh, ZNF638 /// ZNF638-IT1 / RFU, PANK3 / Fold change vs veh, PANK3 / RFU, SH3YL1 / Fold change vs veh, SH3YL1 / RFU, ZEB2 / Fold change vs veh, ZEB2 / RFU, NRIP1 / Fold change vs veh, NRIP1 / RFU, PTTG1IP / Fold change vs veh, PTTG1IP / RFU, CAPN2 / Fold change vs veh, CAPN2 / RFU, MED14 / Fold change vs veh, MED14 / RFU, SNORA58 / Fold change vs veh, SNORA58 / RFU, C1orf63 / Fold change vs veh, C1orf63 / RFU, LRRFIP1 / Fold change vs veh, LRRFIP1 / RFU, NDUFAF7 / Fold change vs veh, NDUFAF7 / RFU, SLC12A2 / Fold change vs veh, SLC12A2 / RFU, IBTK / Fold change vs veh, IBTK / RFU, ESF1 / Fold change vs veh, ESF1 / Fold change vs veh, TMEM50B / RFU, TAOK1 / Fold change vs veh, TAOK1 / RFU, ACBD3 / Fold change vs veh, ACBD3 / RFU, TMA16 / Fold change vs veh, TMA16 / RFU, RWDD3 / Fold change vs veh, RWDD3 / RFU, BCAT1 / Fold change vs veh, BCAT1 / RFU, EDEM3 / Fold change vs veh, EDEM3 / RFU, TMEM33 / Fold change vs veh, TMEM33 / RFU, WDR75 / Fold change vs veh, WDR75 / RFU, AHCTF1 / Fold change vs veh, AHCTF1 / RFU, TFRC / Fold change vs veh, TFRC / RFU, ZDHHC17 / Fold change vs veh, ZDHHC17 / RFU, NOM1 / Fold change vs veh, NOM1 / RFU, ARL8B / Fold change vs veh, ARL8B / RFU, ZBTB11 / Fold change vs veh, ZBTB11 / RFU, TAMM41 / Fold change vs veh, TAMM41 / RFU, KIAA1704 /// LOC100996395 / Fold change vs veh, KIAA1704 /// LOC100996395 / RFU, ING1 / Fold change vs veh, ING1 / RFU, TRMT61B / Fold change vs veh, TRMT61B / RFU, FUBP3 / Fold change vs veh, FUBP3 / RFU, TP53 / Fold change vs veh, TP53 / RFU, TNKS2 / Fold change vs veh, TNKS2 / RFU, ZFP14 / Fold change vs veh, ZFP14 / RFU, ACTR2 / Fold change vs veh, ACTR2 / RFU, PPP3R1 / Fold change vs veh, PPP3R1 / RFU, PIK3R1 / Fold change vs veh, PIK3R1 / RFU, HNRNPA1 / Fold change vs veh, HNRNPA1 / RFU, RNF170 / Fold change vs veh, RNF170 / RFU, ZNF28 / Fold change vs veh, ZNF28 / RFU, RNGTT / Fold change vs veh, RNGTT / RFU, OGT / Fold change vs veh, OGT / RFU, BRD1 / Fold change vs veh, BRD1 / RFU, MARS / Fold change vs veh, MARS / RFU, ZNF655 / Fold change vs veh, ZNF655 / RFU, FAHD1 / Fold change vs veh, FAHD1 / RFU, BDP1 / Fold change vs veh, BDP1 / RFU, LRRCC1 / Fold change vs veh, LRRCC1 / RFU, ARID1A / Fold change vs veh, ARID1A / RFU, ZNF146 / Fold change vs veh, ZNF146 / RFU, ZNF330 / Fold change vs veh, ZNF330 / RFU, GPN3 / Fold change vs veh, GPN3 / RFU, C9orf123 / Fold change vs veh, C9orf123 / RFU, N4BP2L2 / Fold change vs veh, N4BP2L2 / RFU, ARFIP1 / Fold change vs veh, ARFIP1 / RFU, FAM179B / Fold change vs veh, FAM179B / RFU, BCL10 / Fold change vs veh, BCL10 / RFU, UHRF1BP1L / Fold change vs veh, UHRF1BP1L / RFU, BET1 / Fold change vs veh, BET1 / RFU, CNOT2 / Fold change vs veh, CNOT2 / RFU, ZNF268 / Fold change vs veh, ZNF268 / Fold change vs veh, ZNF507 / RFU, DGCR2 / Fold change vs veh, DGCR2 / RFU, WDSUB1 / Fold change vs veh, WDSUB1 / Fold change vs veh, HSP90B1 /// MIR3652 / RFU, ADSS / Fold change vs veh, ADSS / RFU, GK / Fold change vs veh, GK / RFU, ZNF148 / Fold change vs veh, ZNF148 / RFU, TAF9 / Fold change vs veh, TAF9 / RFU, SLC1A5 / Fold change vs veh, SLC1A5 / RFU, SLMO2 / Fold change vs veh, SLMO2 / RFU, ABCC4 / Fold change vs veh, ABCC4 / RFU, LOC101060439 /// RAP1B / Fold change vs veh, LOC101060439 /// RAP1B / RFU, RFX7 / Fold change vs veh, RFX7 / RFU, GTPBP10 / Fold change vs veh, GTPBP10 / RFU, CNEP1R1 / Fold change vs veh, CNEP1R1 / RFU, BIVM-ERCC5 /// ERCC5 / Fold change vs veh, BIVM-ERCC5 /// ERCC5 / RFU, ILF3 / Fold change vs veh, ILF3 / RFU 11762660_at / Fold change /veh 11762660_at / RFU VCAN (11757783_s_at) / Fold change /veh VCAN (11757783_s_at) / RFU DDX43 (11728927_at) / Fold change /veh DDX43 (11728927_at) / RFU KRT8 (11758188_x_at) / Fold change /veh KRT8 (11758188_x_at) / RFU NKD1 (11759106_at) / Fold change /veh NKD1 (11759106_at) / RFU SRD5A1 (11742802_a_at) / Fold change /veh SRD5A1 (11742802_a_at) / RFU TPSAB1 /// TPSB2 (11721975_s_at) / Fold change /veh TPSAB1 /// TPSB2 (11721975_s_at) / RFU GSTM3 (11746129_a_at) / Fold change /veh GSTM3 (11746129_a_at) / RFU IL23R (11737362_x_at) / Fold change /veh IL23R (11737362_x_at) / RFU TMEM51 (11727254_a_at) / Fold change /veh TMEM51 (11727254_a_at) / RFU PIWIL2 (11732686_x_at) / Fold change /veh PIWIL2 (11732686_x_at) / RFU ORM1 (11744905_x_at) / Fold change /veh ORM1 (11744905_x_at) / RFU CCDC152 (11743942_at) / Fold change /veh CCDC152 (11743942_at) / RFU ECM1 (11717891_a_at) / Fold change /veh ECM1 (11717891_a_at) / RFU IL23R (11748794_a_at) / Fold change /veh IL23R (11748794_a_at) / RFU TNFAIP8L3 (11732012_x_at) / Fold change /veh TNFAIP8L3 (11732012_x_at) / RFU MBOAT4 (11741988_at) / Fold change /veh MBOAT4 (11741988_at) / RFU 11764193_at / Fold change /veh 11764193_at / RFU TMEM53 (11763286_at) / Fold change /veh TMEM53 (11763286_at) / RFU MAGEB2 (11727129_at) / Fold change /veh MAGEB2 (11727129_at) / RFU TMEM200A (11744735_a_at) / Fold change /veh TMEM200A (11744735_a_at) / RFU CCDC152 (11751479_a_at) / Fold change /veh CCDC152 (11751479_a_at) / RFU FAM211A (11726209_a_at) / Fold change /veh FAM211A (11726209_a_at) / RFU RGS16 (11746705_a_at) / Fold change /veh RGS16 (11746705_a_at) / RFU VCAN (11755009_s_at) / Fold change /veh VCAN (11755009_s_at) / RFU RHOB (11743442_s_at) / Fold change /veh RHOB (11743442_s_at) / RFU RGS16 (11720943_a_at) / Fold change /veh RGS16 (11720943_a_at) / RFU RGS16 (11720944_at) / Fold change /veh RGS16 (11720944_at) / RFU, VPS4B / Fold change vs veh, VPS4B / RFU, CREB1 / Fold change vs veh, CREB1 / RFU, DNAJC13 / Fold change vs veh, DNAJC13 / RFU, GNAQ / Fold change vs veh, GNAQ / RFU, CDK5R1 / Fold change vs veh, CDK5R1 / RFU, ZRANB3 / Fold change vs veh, ZRANB3 / RFU, CUL4A / Fold change vs veh, CUL4A / RFU, CCNY / Fold change vs veh, CCNY / RFU, UFL1 / Fold change vs veh, UFL1 / RFU, COG3 / Fold change vs veh, COG3 / RFU, DIAPH2 / Fold change vs veh, DIAPH2 / RFU, SKA2 / Fold change vs veh, SKA2 / RFU, AFF3 / Fold change vs veh, AFF3 / RFU, LMF1 / Fold change vs veh, LMF1 / RFU, IPO11 / Fold change vs veh, IPO11 / RFU, DFFB / Fold change vs veh, DFFB / RFU, FOXP1 / Fold change vs veh, FOXP1 / RFU, CARD8 / Fold change vs veh, CARD8 / RFU, STRN3 / Fold change vs veh, STRN3 / RFU, ADK / Fold change vs veh, ADK / RFU, RASSF2 / Fold change vs veh, RASSF2 / RFU, WIPF1 / Fold change vs veh, WIPF1 / RFU, LARP1B / Fold change vs veh, LARP1B / RFU, RASA1 / Fold change vs veh, RASA1 / RFU, RB1 / Fold change vs veh, RB1 / RFU, PPFIA1 / Fold change vs veh, PPFIA1 / RFU, MAT2A / Fold change vs veh, MAT2A / RFU, CCT5 / Fold change vs veh, CCT5 / RFU, WDR92 / Fold change vs veh, WDR92 / RFU, CUX1 / Fold change vs veh, CUX1 / RFU, TTC7A / Fold change vs veh, TTC7A / RFU, TMEM135 / Fold change vs veh, TMEM135 / RFU, DEPTOR / Fold change vs veh, DEPTOR / RFU, CPM / Fold change vs veh, CPM / RFU, DNAJB6 / Fold change vs veh, DNAJB6 / RFU, CACNA2D3 / Fold change vs veh, CACNA2D3 / RFU, DTX4 / Fold change vs veh, DTX4 / RFU, TFCP2 / Fold change vs veh, TFCP2 / RFU, GMCL1 /// GMCL1P1 / Fold change vs veh, GMCL1 /// GMCL1P1 / RFU, AEBP2 / Fold change vs veh, AEBP2 / RFU, SNHG1 /// SNORD22 /// SNORD25 /// SNORD26 /// SNORD27 /// SNORD28 /// SNORD29 /// SNORD31 / Fold change vs veh, SNHG1 /// SNORD22 /// SNORD25 /// SNORD26 /// SNORD27 /// SNORD28 /// SNORD29 /// SNORD31 / Fold change (Aza/veh), C12orf56 (ProbeSet 11735607_a_at) / Fold change (ACY-1035/veh), C12orf56 (ProbeSet 11735607_a_at) / Fold change (Aza/veh), FGFR1OP (ProbeSet 11751329_s_at) / Fold change (ACY-1035/veh), FGFR1OP (ProbeSet 11751329_s_at) / Fold change (Aza/veh), VPS36 (ProbeSet 11739960_a_at) / Fold change (ACY-1035/veh), VPS36 (ProbeSet 11739960_a_at) / RFU SYPL1 (11715823_x_at) / Fold change /veh SYPL1 (11715823_x_at) / RFU IGFBP7 (11715501_s_at) / Fold change /veh IGFBP7 (11715501_s_at) / RFU REEP3 (11722064_at) / Fold change /veh REEP3 (11722064_at) / RFU IGLL1 (11728026_x_at) / Fold change /veh IGLL1 (11728026_x_at): dose or concentration left out as unconfirmed. The settings on record: MV-4-11 cells, 48 hours.

Consider `Nc1ccc(-c2cccs2)cc1NC(=O)c1ccc2c(c1)cc(C1CC1)n2CCN1CCOCC1` [ACY-1035], for which the “RFU CLDN22 /// WWC2 (11732394_at)” value came out at 8.03 RFU.
